Measured values: publication PMC11239005, “Preclinical studies of RA475, a guanidine-substituted spirocyclic candidate RPN13/ADRM1 inhibitor for treatment of ovarian cancer” (PLOS ONE, 2024)

How the values were obtained:
[1] = tested on: high molecular weight polyubiquitinated proteins in SKOV3 cells; test: Anti-ubiquitin immunoblot, SKOV3; type: cell-based; conditions: Up284 and RA475 0.5 and 1 μM, RA190 1 μM
Excerpt: (§1) Cell lysate prepared in MPER (Pierce) from each sample was normalized by total protein concentration using the bicinchoninic acid assay and bovine serum albumin standards. Normalized samples were subjected to SDS-PAGE, transferred to PVDF membranes and analyzed by Western blot using antibodies specific to ubiquitin (P4D1, sc-8017, Santa Cruz), PARP (#9542, […]), actin (#66009, Protein Tech Group), Tubulin(#66031, Protein Tech Group), ADRM1/RPN13 (D9Z1U, #12019, Cell Signaling), USP14 (Cell Signal, # 8159), Annexin V (#559763, BD Pharmingen), and for secondary antibodies we utilized either horseradish peroxidase (HRP)-linked anti-mouse IgG or anti-rabbit IgG (GE Healthcare UK Ltd), HRP-linked streptavidin (N100, Thermo Fisher) at the recommended dilution (1:5000).
(§2) Accumulation of high molecular weight polyubiquitinated proteins (polyUb) is a classical phenomenon of proteasome function inhibition due to the stabilization of its substrate.
Fig 3 Impact of RA475 on proteasome function. […] Actin was used as loading control. […] C) 4T1 and HCC1806 cells stably expressing 4UbFL were treated with compounds at indicated doses for 4 h and imaged by IVIS200 after the addition of luciferin substrate (50 μL, 7mg/mL in PBS). […] After a 4 h incubation, the cells were lysed and the luciferase activity in each cell lysate was determined with a luciferase assay kit (Promega) according to the manufacturer’s instructions. Bioluminescence was measured by using a luminometer (Glomax Multidetection system, Promega) E) A patch was shaved of hair on one leg of CD-1 mice, and 10 μg 4UbFL plasmid in 20 μL of PBS was injected into the quadriceps femoralis muscle followed immediately by injection of the 2 Needle Array to 5 mm depth encompassing the injection site and square wave electroporation (ElectroSquarePorator 833, BTX-2 Needle array 5mm gap, Harvard apparatus) delivered as eight pulses at 106V for 20 ms with 200 ms intervals. […] Equally sized areas were analyzed using Living Image 2.20 software. […]

[2] = human and mouse microsomes; cited from earlier work
RPN13 = target: T1, RPN13 (Homo sapiens, UniProt Q16186); test: Up284B competition labelling in ES2 and SKOV3 cell lysate; type: binding; conditions: titrated RA475, bortezomib 1 μM, Up284B 5 μM
T1 construct: performed the labeling assay after treating ovarian cancer cell lysates (ES2 and SKOV3) in the presence of titrated doses of RA475; endogenous in cells; host or cells: ES2 and SKOV3 ovarian cancer cell lysates
T1 sequence (Q16186 whole entry): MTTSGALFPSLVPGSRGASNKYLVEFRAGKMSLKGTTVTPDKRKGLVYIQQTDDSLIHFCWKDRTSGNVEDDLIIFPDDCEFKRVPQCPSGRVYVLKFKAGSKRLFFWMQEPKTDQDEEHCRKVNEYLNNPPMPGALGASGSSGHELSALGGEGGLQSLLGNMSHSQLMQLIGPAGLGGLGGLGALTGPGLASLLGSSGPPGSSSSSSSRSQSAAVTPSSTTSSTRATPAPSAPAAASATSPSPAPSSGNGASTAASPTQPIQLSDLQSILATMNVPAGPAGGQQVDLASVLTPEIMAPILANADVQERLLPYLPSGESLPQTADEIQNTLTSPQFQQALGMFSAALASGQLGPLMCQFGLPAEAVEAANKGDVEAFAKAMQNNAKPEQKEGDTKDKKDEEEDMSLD
Method: Clarified cell lysate in MPER buffer (Pierce) was pretreated with streptavidin-coated magnetic beads for 45 min at 4°C to deplete non-specific biotinylated proteins in the cell lysate. […] Next, the samples were mixed with Laemmli sample buffer (BioRad) and boiled for 5 min. The proteins were separated using a 4–15% Bio-Rad Mini-PROTEAN SDS-PAGE gel (1 h at 100 V), and transferred to PVDF membrane overnight at 4°C (24 V). The membrane was blocked with 5% (w/v) BSA in phosphate buffered saline containing 0.1% (v/v) Tween 20 (PBST) for 1 h at RT, and washed for 20 min (3X with PBST). Then the membrane was probed with HRP-streptavidin (1:10,000 in PBST) for 1 h at RT, washed for 30 min (3X with PBST), and developed using HyGLO chemiluminescent detection reagent (Denville) and visualized using a Biorad Chemidoc imager.
Fig 2 RA475 binds to RPN13 and induces rapid apoptosis. […] C, D) RA475 competition labelling experiment. C) ES2 D) SKOV3 clarified cell lysate (40 μg/sample) in MPER buffer was pretreated with streptavidin-coated magnetic beads for 45 min at 4°C to deplete non-specific biotinylated proteins in the cell lysate. […] Next, the samples were mixed with Laemmli sample buffer (BioRad) and boiled for 5 min. The proteins were separated using a 4–15% Bio-Rad Mini-PROTEAN SDS-PAGE gel (1 h at 100 V), and transferred to PVDF membrane overnight at 4°C (24 V). […]

[3] = tested on: high molecular weight polyubiquitinated proteins in OVCAR3 cells; test: Anti-ubiquitin immunoblot, OVCAR3; type: cell-based, human; conditions: Up284 0.5 μM, bortezomib 0.25 μM, ixazomib 0.25 μM, RA475 0.5 or 1 μM
Excerpt: as §1, §2
Fig 3 Impact of RA475 on proteasome function. […] Actin was used as loading control. […] C) 4T1 and HCC1806 cells stably expressing 4UbFL were treated with compounds at indicated doses for 4 h and imaged by IVIS200 after the addition of luciferin substrate (50 μL, 7mg/mL in PBS). D) Sub-confluent cultures of ES2 cells stably expressing 4UbFL were seeded at 10,000 cells/well in 96-well microtiter plates. At 18 h post transfection, cells were treated with compounds or vehicle (DMSO) at the doses indicated. After a 4 h incubation, the cells were lysed and the luciferase activity in each cell lysate was determined with a luciferase assay kit (Promega) according to the manufacturer’s instructions. Bioluminescence was measured by using a luminometer (Glomax Multidetection system, Promega) E) A patch was shaved of hair on one leg of CD-1 mice, and 10 μg 4UbFL plasmid in 20 μL of PBS was injected into the quadriceps femoralis muscle followed immediately by injection of the 2 Needle Array to 5 mm depth encompassing the injection site and square wave electroporation (ElectroSquarePorator 833, BTX-2 Needle array 5mm gap, Harvard apparatus) delivered as eight pulses at 106V for 20 ms with 200 ms intervals. One day post electroporation, mice were anesthetized with isoflurane, injected IP with luciferin (0.3 mg in 100 μL water) and optical imaging was performed to determine basal level luciferase expression. Images were acquired for 10 min with a Xenogen IVIS 200 (Caliper, Hopkinton, MA). Equally sized areas were analyzed using Living Image 2.20 software. Mice were imaged weekly during treatment. […]

[4] = cited from earlier work
MDA-MB-468 cells = test: Surface Annexin V display by flow cytometry, MDA-MB-468; type: cell-based; conditions: MDA-MB-468, 12 h; RA475 1 or 2 μM, ixazomib 1 μM
Method: The percentage of cells initiating apoptosis was assessed with the annexin V FITC assay kit. The cells (2 × 10^5 cells/well) were treated with the described compounds at selected concentrations for 12 h or 16 h, as indicated. The cells were then collected, washed with PBS, resuspended in 100 μL of annexin V-FITC and 7-AAD dual-stain solution (3 μL Annexin V and 3 μL 7AAD, Catalog Number; 559763-BD bioscience), and incubated 20 min in the dark. The samples were then analyzed via flow cytometry using FlowJo V10 software. All experiments were repeated three times.
Supplementary file pone.0305710.s006.tif: S6 Fig RA475 induced apoptosis in a triple negative breast cancer cell line. […] (TIF)

competition with Up284B for binding to RPN13 (RPN13)	SMILES	accumulation of high molecular weight polyubiquitinated proteins [1]	breakdown in microsomes compared with RA475 [2]	forms of polyUb induced [3]	concentration in human cerebrospinal fluid and murine brain tissue, % of serum concentrations [4]	apoptosis by surface Annexin V display (MDA-MB-468 cells)	access to the brain [4]
	Cl.N[C@@H](Cc1ccccc1)C(=O)N1C/C(=C/c2ccc(Cl)c(Cl)c2)C(=O)/C(=C\c2ccc(Cl)c(Cl)c2)C1 [RA190]	robust accumulation of polyUb	more rapidly broken down				
no impact	CC(C)C[C@H](NC(=O)[C@H](Cc1ccccc1)NC(=O)c1cnccn1)B(O)O [bortezomib]			only induced the smaller poly Ub forms, typically <250kDa	5–7%		
	CC(C)C[C@H](NC(=O)CNC(=O)c1cc(Cl)ccc1Cl)B(O)O [ixazomib]			only induced the smaller poly Ub forms, typically <250kDa		initiated apoptosis	mostly excluded from the brain
